Measurements from patent publication US8053453B2, “Pyrazolone compounds and thrombopoietin receptor activator” (Nissan Chemical Industries, Ltd., priority 2002, dated 2011).
Read-outs that look alike come from different tables or passages of the source.

Biological target: T1, human TPO receptor (Homo sapiens, UniProt P40238)
T1 construct: expressed in transfected cells
T1 sequence (P40238 26-635): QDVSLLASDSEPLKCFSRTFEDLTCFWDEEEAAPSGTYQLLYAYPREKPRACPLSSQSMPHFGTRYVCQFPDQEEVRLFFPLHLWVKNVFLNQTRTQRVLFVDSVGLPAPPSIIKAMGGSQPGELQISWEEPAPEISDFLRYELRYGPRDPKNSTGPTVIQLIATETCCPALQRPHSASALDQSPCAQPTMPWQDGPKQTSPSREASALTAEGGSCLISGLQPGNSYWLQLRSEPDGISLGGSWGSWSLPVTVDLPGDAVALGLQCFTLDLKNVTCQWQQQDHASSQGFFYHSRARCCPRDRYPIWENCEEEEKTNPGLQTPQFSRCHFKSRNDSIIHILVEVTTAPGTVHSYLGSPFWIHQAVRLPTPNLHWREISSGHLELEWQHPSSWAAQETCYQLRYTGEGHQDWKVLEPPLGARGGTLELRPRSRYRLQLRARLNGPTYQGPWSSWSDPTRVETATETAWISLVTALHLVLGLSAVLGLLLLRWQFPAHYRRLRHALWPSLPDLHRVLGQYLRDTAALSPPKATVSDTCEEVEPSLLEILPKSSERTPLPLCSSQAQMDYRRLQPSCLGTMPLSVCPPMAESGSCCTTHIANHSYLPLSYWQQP
Experiment: Proliferation of TPO-dependent cell line UT7/EPO-mpl, MTT method (Assay Examples 1, 3, 4)
Assay type: cell-based
Conditions: UT7/EPO-mpl cells; for Emax / Efficacy (%) (maximal growth rate): value in the presence of 10 ng/ml TPO taken as 100% standard, method of Assay Example 1; for Emax: read-out: Efficacy (%) (maximal growth rate); for EC50: concentration giving 50% of the maximum cell growth observed with the same compound
Description: The reactivity of Synthetic Example 56, the compound of the present invention, with thrombopoietin (TPO) receptor was assayed using a human leukemic cell line, UT7/EPO-mpl.
UT7/EPO-mpl is a stable transformed cell line obtained by introducing into human leukemic cell line UT7/EPO a vector that induces expression of human TPO receptor (c-mp1) under control of a cytomegaloviral promoter by the method of Takatoku et al. (J. Biol. Chem., 272:7259-7263 (1997)). […] These two cell lines were subcultured in Iscove's modified Dulbecco's medium (IMDM; GIBCO) containing 10% fetal bovine serum (FBS; TRACE SCIENTIFIC) using a CO2 incubator (5% CO2, 37° C.).
The subcultured cells described above were washed twice with phosphate buffered saline (PBS) and suspended in IMDM containing 10% FBS at a cell density of 6×10^4 cells/ml. The cell suspension was transferred to a 96-well tissue culture plate (CORNING) in 100-μl aliquots. Then either TPO (PeproTech EC) or Synthetic Example 56 dissolved in dimethylsulfoxide (DMSO) was diluted 83-fold with IMDM containing 10% FBS and added to the aforementioned cell suspension in 20-μl aliquots. The suspension was incubated in a CO2 incubator (5% CO2, 37° C.) for 4 days. Cell proliferation was assayed according to the method of Mosmann et al. (J. Immunol. Methods, 65:55-63 (1983)). A 10-μl aliquot of 5 mg/ml MTT reagent (SIGMA) was added to each well of the tissue culture plate and the plate was incubated at 37° C. for 4 h. The formazan pigment generated was dissolved by adding 150 μl per well of 0.1 M HCl/isopropanol solution and the absorbance of the resulting pigment solution was measured at 550 nm with a 96-well microplate reader (BIO-RAD, M450).
The following Synthetic Examples were tested according to the method of Assay Example 1 to determine the maximal growth rate (efficacy), expressed by taking the value with human leukemic cell line UT7/EPO-mpl observed in the presence of 10 ng/ml TPO as 100% standard, and the concentration of each compound that yields a growth rate corresponding to 50% of the maximum cell growth observed with the same compound (EC50).
Synthetic Example 56, the compound of the present invention, and four compounds (Reference Synthetic Examples 1 to 4) described in a publication of international patent application (Publication No. WO01/34585, applied by SmithKline Beecham Corp.) were tested according to the method of Assay Example 1.

[1] = read-out: EC50 (ng/ml) (converted)

| SMILES | Emax [%] | EC50 [1] [nM] | EC50 [µg/mL] | Efficacy (%) (maximal growth rate) |
| --- | --- | --- | --- | --- |
| Cc1ccc(-n2nc(C)c(C=NN3C(=O)C(=Cc4ccc(C(=O)O)cc4)SC3=S)c2O)cc1C [Reference Synthetic Example 1, 5-(4-carboxybenzylidene)-3-[(1-{3,4-dimethylphenyl}-5-hydroxy-3-methyl-1H-pyrazol-4-ylmethylene)amino]-2-thioxothiazolidin-4-one, reference compound] | 7 | – | – | – |
| Cc1ccc(-n2nc(C)c(C=NN3C(=O)C(=Cc4cccc(C(=O)O)c4)SC3=S)c2O)cc1C [Reference Synthetic Example 2, 5-(3-carboxybenzylidene)-3-[(1-{3,4-dimethylphenyl}-5-hydroxy-3-methyl-1H-pyrazol-4-ylmethylene)amino]-2-thioxothiazolidin-4-one, reference compound] | 12 | – | – | – |
| Cc1ccc(-n2nc(C)c(C=NN3CC(=O)N(c4cccc(C(=O)O)c4)C3=S)c2O)cc1C [Reference Synthetic Example 3, 3-(3-carboxyphenyl)-1-[(1-{3,4-dimethylphenyl}-5-hydroxy-3-methyl-1H-pyrazol-4-ylmethylene)amino]-2-thioxoimidazolidin-4-one, reference compound] | 7 | – | – | – |
| Cc1ccc(-n2nc(C)c(C=NN3CC(=O)N(c4ccc(C(=O)O)cc4)C3=S)c2O)cc1C [Reference Synthetic Example 4, 3-(4-carboxyphenyl)-1-[(1-{3,4-dimethylphenyl}-5-hydroxy-3-methyl-1H-pyrazol-4-ylmethylene)amino]-2-thioxoimidazolidin-4-one, reference compound] | 67 | 3020 | – | – |
| CC1=NN(c2ccc(I)cc2)C(=O)C1=C(C)NNC(=O)c1ccc(O)cc1O [compound 1] | – | – | 0.0074 | 74 |
| CC1=NN(c2ccc(C(C)(C)C)cc2)C(=O)C1=C(C)NNC(=O)c1cc(O)cc(O)c1 [compound 2] | – | – | 0.0063 | 89 |
| CC1=NN(c2ccc(C)c(C)c2)C(=O)C1=C(C)NNC(=O)c1cc(O)cc(O)c1 [compound 3] | – | – | 0.015 | 82 |
| COC(=O)c1ccc(C(=O)NNC(C)=C2C(=O)N(c3ccc(C(C)(C)C)cc3)N=C2C)cc1 [compound 4] | – | – | 0.015 | 53 |
| CC1=NN(c2ccc(C(C)(C)C)cc2)C(=O)C1=C(C)NNC(=O)c1ccc(C(=O)O)cc1 [compound 5] | – | – | 0.0034 | 86 |
| COC(=O)c1ccc(C(=O)NNC(C)=C2C(=O)N(c3ccc(C)c(C)c3)N=C2C)cc1 [compound 6] | 64 | 17.6 | – | – |
| CC1=NN(c2ccc(C)c(C)c2)C(=O)C1=C(C)NNC(=O)c1ccc(C(=O)O)cc1 [compound 7] | – | – | 0.0022 | 99 |
| COC(=O)c1ccc(C(=O)NNC(C)=C2C(=O)N(c3cccc(C(F)(F)F)c3)N=C2C)cc1 [compound 8] | 52 | 67.3 | – | – |
| CC1=NN(c2cccc(C(F)(F)F)c2)C(=O)C1=C(C)NNC(=O)c1ccc(C(=O)O)cc1 [compound 9] | – | – | 0.0051 | 90 |
| COC(=O)c1ccc(C(=O)NNC(C)=C2C(=O)N(c3ccc(C(F)(F)F)cc3)N=C2C)cc1 [compound 10] | 78 | 43.4 | – | – |
| CC1=NN(c2ccc(C(F)(F)F)cc2)C(=O)C1=C(C)NNC(=O)c1ccc(C(=O)O)cc1 [compound 11] | – | – | 0.002 | 83 |
| CC1=NN(c2ccc(C(C)(C)C)cc2)C(=O)C1=C(C)NNC(=O)c1cccc(C(=O)O)c1 [compound 12] | – | – | 0.076 | 100 |
| CC1=NN(c2ccc(C)c(C)c2)C(=O)C1=C(C)NNC(=O)c1cccc(C(=O)O)c1 [compound 13] | – | – | 0.28 | 99 |
| CC1=NN(c2ccccc2)C(=O)C1=C(C)NNC(=O)c1cccc([N+](=O)[O-])c1 [compound 14] | – | – | 0.072 | 91 |

| SMILES | Emax [%] | EC50 [1] [nM] | EC50 [µg/mL] | Efficacy (%) (maximal growth rate) |
| --- | --- | --- | --- | --- |
| CC1=NN(c2ccc(C(C)(C)C)cc2)C(=O)C1=C(C)NNC(=O)c1cccc([N+](=O)[O-])c1 [compound 15] | – | – | 0.023 | 109 |
| CC1=NN(c2ccccc2)C(=O)C1=C(C)NNC(=O)c1ccccc1O [compound 16] | – | – | 0.061 | 58 |
| CC1=NN(c2ccccc2)C(=O)C1=C(C)NNC(=O)c1ccc(O)cc1 [compound 17] | – | – | 0.079 | 73 |
| CC1=NN(c2ccccc2)C(=O)C1=C(C)NNC(=O)c1cc2ccccc2cc1O [compound 18] | – | – | 0.055 | 94 |
| CC1=NN(c2ccccc2)C(=O)C1=C(C)NNC(=O)c1ccc(O)cc1O [compound 19] | – | – | 0.014 | 100 |
| CC1=NN(c2ccccc2)C(=O)C1=C(C)NNC(=O)c1ccc(O)c(O)c1 [compound 20] | – | – | 0.038 | 91 |
| CC1=NN(c2ccccc2)C(=O)C1=C(C)NNC(=O)c1ccccc1[N+](=O)[O-] [compound 21] | – | – | 0.29 | 39 |
| CC1=NN(c2ccccc2)C(=O)C1=C(C)NNC(=O)c1ccc([N+](=O)[O-])cc1 [compound 22] | – | – | 0.19 | 50 |
| CC1=NN(c2ccc(C(C)(C)C)cc2)C(=O)C1=C(C)NNC(=O)c1ccccc1O [compound 23] | – | – | 0.028 | 129 |
| CC1=NN(c2ccc(C(C)(C)C)cc2)C(=O)C1=C(C)NNC(=O)c1ccc(O)cc1 [compound 24] | – | – | 0.0072 | 89 |
| CC1=NN(c2ccc(C(C)(C)C)cc2)C(=O)C1=C(C)NNC(=O)c1cc2ccccc2cc1O [compound 25] | – | – | 0.2 | 54 |
| CC1=NN(c2ccc(C(C)(C)C)cc2)C(=O)C1=C(C)NNC(=O)c1ccc(O)cc1O [compound 26] | – | – | 0.0029 | 78 |
| CC1=NN(c2ccc(C(C)(C)C)cc2)C(=O)C1=C(C)NNC(=O)c1ccc(O)c(O)c1 [compound 27] | – | – | 0.0056 | 75 |
| CC1=NN(c2ccc(C(C)(C)C)cc2)C(=O)C1=C(C)NNC(=O)c1ccccc1[N+](=O)[O-] [compound 28] | – | – | 0.037 | 99 |
| CC1=NN(c2ccc(C(C)(C)C)cc2)C(=O)C1=C(C)NNC(=O)c1ccc([N+](=O)[O-])cc1 [compound 29] | – | – | 0.23 | 67 |
| CC1=NN(c2ccc(C(F)(F)F)cc2)C(=O)C1=C(C)NNC(=O)c1ccccc1O [compound 30] | – | – | 0.019 | 106 |
| CC1=NN(c2ccc(C(F)(F)F)cc2)C(=O)C1=C(C)NNC(=O)c1ccc(O)cc1 [compound 31] | – | – | 0.0052 | 63 |
| CC1=NN(c2ccc(C(F)(F)F)cc2)C(=O)C1=C(C)NNC(=O)c1cc2ccccc2cc1O [compound 32] | – | – | 0.037 | 90 |
